In patent publication US11697650B2, “Compounds having tetrahydroindolizine-1-carboxamide as BCL-2 inhibitors” (Eil Therapeutics, Inc., priority 2021, dated 2023):

What was measured:
[1] = system: RS4-11 cells; assay: Cell viability assay (CellTiter-Glo), RS4-11; type: cell-based; conditions: Homo sapiens, 72 h, 3 days, read-out: RS4-11 (CC50 code)
Description: (§1) Culture medium for HEK293—DMEM (PanEco, Cat #C420) was used. RPMI-1640 (PanEco, Cat #C363) was used for the rest of the cell lines.
(§2) Compounds were prepared as 200× stocks with serial dilution in 100% DMSO with a final concentration of 1×.
(§3) […] were dispersed in 40 μL aliquots in 384-well plates at a concentration of 2000 cells per well for HEK293 and at a concentration of 4000 cells per well for the rest of the cell lines using a robotic station Biomek (Beckman). Before adding compounds, the cells were incubated at 37° C. (HEK293 were incubated for a day before adding compounds).
(§4) A dilution plate was prepared by pouring 78 μL of the appropriate culture medium using a robotic station Biomek (Beckman). Sequentially, using a robotic station, 2 μL of substances were taken and added to 78 μL of culture medium (dilution of compounds 40×). 10 μL aliquots were taken and added to the plates of the cells (dilution of compounds 5×). The plates were incubated for 3 days at a temperature 37° C. After 3 days, 10 μL of CellTiter-Glo (Promega) was added to the cells and the luminescence was measured.

[2] = system: MOLT-4 cells; assay: Cell viability assay (CellTiter-Glo), MOLT-4; type: cell-based; conditions: Homo sapiens, 72 h, 3 days, read-out: MOLT-4 (CC50 code)
Description: as §1, §2, §3, §4

[3] = Cell viability assay (CellTiter-Glo), HEK293; type: cell-based; conditions: human, HEK293 cells, read-out: HEK293 (CC50 code)
Description: as §1, §2, §3, §4

[4] = system: caspase-3 and -7 activities in RS4-11 cells; assay: Caspase-3/7 activation (Caspase-Glo 3/7) in RS4-11 cells; type: cell-based; conditions: Homo sapiens, 3.5 h incubation, read-out: Cas-3/7 (EC50 code)
Description: The Caspase-Glo 3/7 Assay is homogeneous, luminescent assay that measures caspase-3 and -7 activities. The assay provides a luminogenic caspase-3/7 substrate, which contains the tetrapeptide sequence DEVD, in a reagent optimized for caspase activity.
Incubate RS4-11 cells with varying concentrations of test compounds for 3.5 h in a humidified incubator at 37° C. and 5% CO2 and 30 min at r.t. Add 15 μl Caspase-Glo reagent to each well and incubate the plate for 30 min at r.t. Read on ClarioStar Plus instrument.
Promega Caspase-Glo (Promega, #8212); Frozen RS4-11 cells; 384-well white plate (Corning, #3570).
ClarioStar Plus; Biomek FX for liquid handling (Beckman Coulter).

[5] = molecular target: BCL-2 (Homo sapiens (Human), UniProt P10415); assay: BCL-2 TR-FRET Assay (primary PPI inhibition); type: binding; conditions: 60 min incubation; read-out: BCL2 (IC50 code, BCL-2 TR-FRET)
Sequence of BCL-2 (P10415 whole entry): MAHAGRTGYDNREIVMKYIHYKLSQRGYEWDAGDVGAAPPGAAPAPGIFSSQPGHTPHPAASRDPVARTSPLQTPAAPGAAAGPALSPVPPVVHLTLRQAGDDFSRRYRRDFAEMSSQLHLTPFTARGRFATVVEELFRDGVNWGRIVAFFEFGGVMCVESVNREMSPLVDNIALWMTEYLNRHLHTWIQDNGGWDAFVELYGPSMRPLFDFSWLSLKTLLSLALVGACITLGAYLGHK
Description: BCL-2 TR-FRET Assay (BPS Bioscience, #50222)
(§5) The following assay concentrations and times were used: 3 ng BCL-2, 5 μl of 1:100 anti-His Tb-labeled donor, 5 μl of 1:100 Dye-labeled acceptor, 5 μl of 1:40 BCL-2 Peptide Ligand, and 2 ul of test compound, with 60 min incubation time. The results of the assay were read using a Clariostar (BMG Labtech) plate reader with the following parameters: TR FRET, 340ex/620 and 665em; 60 μsec Delay; and 500 μsec integration.

[6] = molecular target: BCL-XL (Homo sapiens (Human), UniProt Q07817); assay: BCL-XL TR-FRET Assay (primary PPI inhibition); type: binding; conditions: 60 min incubation; read-out: BCLxL (IC50 code, BCL-XL TR-FRET)
Sequence of BCL-XL (Q07817 whole entry): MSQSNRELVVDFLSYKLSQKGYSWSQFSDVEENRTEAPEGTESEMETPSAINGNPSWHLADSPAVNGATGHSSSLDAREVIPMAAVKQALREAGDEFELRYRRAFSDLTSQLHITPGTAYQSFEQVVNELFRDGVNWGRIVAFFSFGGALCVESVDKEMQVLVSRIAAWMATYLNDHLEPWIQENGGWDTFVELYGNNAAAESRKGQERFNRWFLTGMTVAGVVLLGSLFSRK
Description: BCL-XL TR-FRET Assay (BPS Bioscience, #50223)
as §5, with “used: 10.5” for “used: 3”, “ng BCL-XL,” for “ng BCL-2,”, “of 1:80 BCL-XL” for “of 1:40 BCL-2”, “2 μl” for “2 ul”

| Compound | CC50 [1] | CC50 [2] | CC50 at 3 days [3] | EC50 [4] | IC50 [5] | IC50 [6] |
| --- | --- | --- | --- | --- | --- | --- |
| O=C(c1cc(-c2cc3c(cc2C(=O)N2Cc4ccccc4C[C@H]2CN2CCOCC2)OCO3)n2c1CCCC2)N(Cc1ccccc1F)c1ccc(O)cc1 [Compound 11, N-(2-fluorobenzyl)-N-(4-hydroxyphenyl)-3-(6-{[(3S)-3-(morpholin-4-ylmethyl)-3,4-dihydroisoquinolin-2(1H)-yl]carbonyl}-1,3-benzodioxol-5-yl)-5,6,7,8-tetrahydroindolizine-1-carboxamide] | ≤ 100 nM | > 10000 nM | 10000 to 25000 nM | ≤ 100 nM | – | – |
| O=C(c1cc(-c2cc3c(cc2C(=O)N2Cc4ccccc4C[C@H]2CN2CCOCC2)OCO3)n2c1CCCC2)N(Cc1ccc(F)cc1)c1ccc(O)cc1 [Compound 17, N-(4-fluorobenzyl)-N-(4-hydroxyphenyl)-3-(6-{[(3S)-3-(morpholin-4-ylmethyl)-3,4-dihydroisoquinolin-2(1H)-yl]carbonyl}-1,3-benzodioxol-5-yl)-5,6,7,8-tetrahydroindolizine-1-carboxamide] | > 200 nM | > 10000 nM | > 25000 nM | > 250 nM | 10 to 50 nM | – |
| O=C(c1cc(-c2cc3c(cc2C(=O)N2Cc4ccccc4C[C@H]2CN2CCOCC2)OCO3)n2c1CCCC2)N(Cc1c(F)cccc1C(F)(F)F)c1ccc(O)cc1 [Compound 22, N-[2-fluoro-6-(trifluoromethyl)benzyl]-N-(4-hydroxyphenyl)-3-(6-{[(3S)-3-(morpholin-4-ylmethyl)-3,4-dihydroisoquinolin-2(1H)-yl]carbonyl}-1,3-benzodioxol-5-yl)-5,6,7,8-tetrahydroindolizine-1-carboxamide] | – | – | – | – | > 50 nM | > 4000 nM |
| O=C(c1cc(-c2cc3c(cc2C(=O)N2Cc4ccccc4C[C@H]2CN2CCOCC2)OCO3)n2c1CCCC2)N(Cc1ccc(OC(F)(F)F)cc1)c1ccc(O)cc1 [Compound 26, N-(4-hydroxyphenyl)-3-(6-{[(3S)-3-(morpholin-4-ylmethyl)-3,4-dihydroisoquinolin-2(1H)-yl]carbonyl}-1,3-benzodioxol-5-yl)-N-[4-(trifluoromethoxy)benzyl]-5,6,7,8-tetrahydroindolizine-1-carboxamide] | – | – | – | – | > 50 nM | > 4000 nM |
| CCOc1ccc(-c2nc(CN(C(=O)c3cc(-c4cc5c(cc4C(=O)N4Cc6ccccc6C[C@H]4CN4CCOCC4)OCO5)n4c3CCCC4)c3ccc(O)cc3)c(C)o2)cc1 [Compound 27, N-{[2-(4-ethoxyphenyl)-5-methyl-1,3-oxazol-4-yl]methyl}-N-(4-hydroxyphenyl)-3-(6-{[(3S)-3-(morpholin-4-ylmethyl)-3,4-dihydroisoquinolin-2(1H)-yl]carbonyl}-1,3-benzodioxol-5-yl)-5,6,7,8-tetrahydroindolizine-1-carboxamide] | – | – | – | – | > 50 nM | > 4000 nM |
| Cc1cccc(C)c1CN(C(=O)c1cc(-c2cc3c(cc2C(=O)N2Cc4ccccc4C[C@H]2CN2CCOCC2)OCO3)n2c1CCCC2)c1ccc(O)cc1 [Compound 30, N-(2,6-dimethylbenzyl)-N-(4-hydroxyphenyl)-3-(6-{[(3S)-3-(morpholin-4-ylmethyl)-3,4-dihydroisoquinolin-2(1H)-yl]carbonyl}-1,3-benzodioxol-5-yl)-5,6,7,8-tetrahydroindolizine-1-carboxamide] | – | – | – | – | > 50 nM | – |
| Cc1cccc(F)c1CN(C(=O)c1cc(-c2cc3c(cc2C(=O)N2Cc4ccccc4C[C@H]2CN2CCOCC2)OCO3)n2c1CCCC2)c1ccc(O)cc1 [Compound 32, N-(2-fluoro-6-methylbenzyl)-N-(4-hydroxyphenyl)-3-(6-{[(3S)-3-(morpholin-4-ylmethyl)-3,4-dihydroisoquinolin-2(1H)-yl]carbonyl}-1,3-benzodioxol-5-yl)-5,6,7,8-tetrahydroindolizine-1-carboxamide] | – | – | – | – | 10 to 50 nM | – |
| Cc1ccc(C(F)(F)F)cc1CN(C(=O)c1cc(-c2cc3c(cc2C(=O)N2Cc4ccccc4C[C@H]2CN2CCOCC2)OCO3)n2c1CCCC2)c1ccc(O)cc1 [Compound 38, N-(4-hydroxyphenyl)-N-[2-methyl-5-(trifluoromethyl)benzyl]-3-(6-{[(3S)-3-(morpholin-4-ylmethyl)-3,4-dihydroisoquinolin-2(1H)-yl]carbonyl}-1,3-benzodioxol-5-yl)-5,6,7,8-tetrahydroindolizine-1-carboxamide] | – | – | – | – | 10 to 50 nM | – |
| O=C(c1cc(-c2cc3c(cc2C(=O)N2Cc4ccccc4C[C@H]2CN2CCOCC2)OCO3)n2c1CCCC2)N(Cc1cccnc1)c1ccc(O)cc1 [Compound 39, N-(4-hydroxyphenyl)-3-(6-{[(3S)-3-(morpholin-4-ylmethyl)-3,4-dihydroisoquinolin-2(1H)-yl]carbonyl}-1,3-benzodioxol-5-yl)-N-(pyridin-3-ylmethyl)-5,6,7,8-tetrahydroindolizine-1-carboxamide] | > 200 nM | ≤ 2000 nM | 10000 to 25000 nM | – | 5 to 10 nM | 2000 to 4000 nM |
| CS(=O)(=O)NC(=O)c1cccc(CN(C(=O)c2cc(-c3cc4c(cc3C(=O)N3Cc5ccccc5C[C@H]3CN3CCOCC3)OCO4)n3c2CCCC3)c2ccc(O)cc2)c1 [Compound 43, N-(4-hydroxyphenyl)-N-{3-[(methylsulfonyl)carbamoyl]benzyl}-3-(6-{[(3S)-3-(morpholin-4-ylmethyl)-3,4-dihydroisoquinolin-2(1H)-yl]carbonyl}-1,3-benzodioxol-5-yl)-5,6,7,8-tetrahydroindolizine-1-carboxamide] | – | – | – | – | 5 to 10 nM | 2000 to 4000 nM |
| O=C(O)c1cccc(CN(C(=O)c2cc(-c3cc4c(cc3C(=O)N3Cc5ccccc5C[C@H]3CN3CCOCC3)OCO4)n3c2CCCC3)c2ccc(O)cc2)c1 [Compound 45, 3-[(4-Hydroxy-N-[3-[6-[(3S)-3-(morpholinomethyl)-3,4-dihydro-1H-isoquinoline-2-carbonyl]-1,3-benzodioxol-5-yl]-5,6,7,8-tetrahydroindolizine-1-carbonyl]anilino)methyl]benzoic Acid] | > 200 nM | > 10000 nM | > 25000 nM | – | 10 to 50 nM | 2000 to 4000 nM |
| CC(C)(C)OC(=O)c1cccc(CN(C(=O)c2cc(-c3cc4c(cc3C(=O)N3Cc5ccccc5C[C@H]3CN3CCOCC3)OCO4)n3c2CCCC3)c2ccc(O)cc2)c1 [Compound 46, tert-Butyl 3-[(4-hydroxy-N-[3-[6-[(3S)-3-(morpholinomethyl)-3,4-dihydro-1H-isoquinoline-2-carbonyl]-1,3-benzodioxol-5-yl]-5,6,7,8-tetrahydroindolizine-1-carbonyl]anilino)methyl]benzoate] | – | – | – | – | 10 to 50 nM | – |
| N#Cc1ccccc1CN(C(=O)c1cc(-c2cc3c(cc2C(=O)N2Cc4ccccc4C[C@H]2CN2CCOCC2)OCO3)n2c1CCCC2)c1ccc(O)cc1 [Compound 47, N-[(2-Cyanophenyl)methyl]-N-(4-hydroxyphenyl)-3-[6-[(3S)-3-(morpholinomethyl)-3,4-dihydro-1H-isoquinoline-2-carbonyl]-1,3-benzodioxol-5-yl]-5,6,7,8-tetrahydroindolizine-1-carboxamide] | – | – | – | – | > 50 nM | – |
| O=C(c1cc(-c2cc3c(cc2C(=O)N2Cc4ccccc4C[C@H]2CN2CCOCC2)OCO3)n2c1CCCC2)N(Cc1cccc([N+](=O)[O-])c1)c1ccc(O)cc1 [Compound 49, N-(4-Hydroxyphenyl)-3-[6-[(3S)-3-(morpholinomethyl)-3,4-dihydro-1H-isoquinoline-2-carbonyl]-1,3-benzodioxol-5-yl]-N-[(3-nitrophenyl)methyl]-5,6,7,8-tetrahydroindolizine-1-carboxamide] | > 200 nM | > 10000 nM | > 25000 nM | – | > 50 nM | > 4000 nM |
